# Active and inactive are the calls of the source.
# Key:
# [1] = target: Nuclear receptor subfamily 5 group A member 2 (Homo sapiens, UniProt O00482); type: functional, cell-based;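 further: HEK293T cells transfected with LRH-1 and a StAR promoter luciferase reporter; potency for inhibitors that lower LRH-1 driven reporter light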
# Steroidogenic factor 1 = Steroidogenic factor 1 (Homo sapiens, UniProt Q13285); assay: Counterscreen for inverse agonists of the liver receptor homolog-1 (LRH-1; NR5A2): Luminescence-based cell-based high throughput dose response assay to identify inverse agonists of the Steroidogenic Factor 1 Nuclear Receptor (SF1; NR5A1).; type: functional
# [2] = nonselective StAR promoter luciferase inhibitors – cell-based, luminescence, luciferase reporter, counter-screen for LRH-1 inverse agonist project, dose response (AID 651969); type: functional
# [3] = target: T1, High affinity choline transporter 1 (Homo sapiens, UniProt Q9GZV3); assay: human choline transporter blockers, potency – cell-based, 5-point CRC, membrane potential dye, dose response (AID 504840); type: functional
# T1 sequence (Q9GZV3 whole entry): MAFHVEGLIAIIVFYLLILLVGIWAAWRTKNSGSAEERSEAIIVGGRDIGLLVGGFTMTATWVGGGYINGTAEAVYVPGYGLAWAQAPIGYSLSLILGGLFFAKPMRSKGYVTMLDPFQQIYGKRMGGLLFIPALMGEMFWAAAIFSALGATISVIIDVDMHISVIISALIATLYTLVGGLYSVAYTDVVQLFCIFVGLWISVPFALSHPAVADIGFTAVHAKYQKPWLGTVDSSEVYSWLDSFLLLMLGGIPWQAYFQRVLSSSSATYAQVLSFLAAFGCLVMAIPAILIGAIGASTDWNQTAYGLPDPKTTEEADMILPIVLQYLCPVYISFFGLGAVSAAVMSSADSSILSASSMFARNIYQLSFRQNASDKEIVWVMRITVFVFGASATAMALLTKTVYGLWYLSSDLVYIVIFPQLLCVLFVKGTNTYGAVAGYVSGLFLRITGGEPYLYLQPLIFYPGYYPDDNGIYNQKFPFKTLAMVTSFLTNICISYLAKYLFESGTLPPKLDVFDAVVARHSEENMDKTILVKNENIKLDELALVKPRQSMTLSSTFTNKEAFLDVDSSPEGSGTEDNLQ
# [4] = target: T1, High affinity choline transporter 1; assay: human choline transporter blockers, potency – cell-based, 10-point CRC, membrane potential dye, dose response (AID 588401); type: functional;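 further: membrane potential dye fluorescence of choline-evoked depolarization via CHT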
# [5] = target: T2, Probable nicotinate-nucleotide adenylyltransferase (Staphylococcus aureus (strain N315), UniProt P65502); type: functional, Staphylococcus aureus subsp. aureus N315;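 on IC50 Mean: confirmatory dose-response retesting of NadD inhibitor hits first found in an ultra-high-throughput screen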
# [6] = target: T2, Probable nicotinate-nucleotide adenylyltransferase; type: functional, Staphylococcus aureus subsp. aureus N315; conditions: read-out: IC50_Mean
# [7] = viability loss in HeLa cells – cytotoxicity control for MgcRacGAP inhibitor project, dose response (AID 624300); type: functional
# [8] = target: T3, Rac GTPase-activating protein 1 (Homo sapiens, UniProt Q9H0H5); assay: blockers of MgcRacGAP-driven Rac1 GTP hydrolysis – biochemical, ADP Hunter fluorescence, primary and confirmatory, confirmation (AID 624330); type: functional
# T3 sequence (Q9H0H5 whole entry): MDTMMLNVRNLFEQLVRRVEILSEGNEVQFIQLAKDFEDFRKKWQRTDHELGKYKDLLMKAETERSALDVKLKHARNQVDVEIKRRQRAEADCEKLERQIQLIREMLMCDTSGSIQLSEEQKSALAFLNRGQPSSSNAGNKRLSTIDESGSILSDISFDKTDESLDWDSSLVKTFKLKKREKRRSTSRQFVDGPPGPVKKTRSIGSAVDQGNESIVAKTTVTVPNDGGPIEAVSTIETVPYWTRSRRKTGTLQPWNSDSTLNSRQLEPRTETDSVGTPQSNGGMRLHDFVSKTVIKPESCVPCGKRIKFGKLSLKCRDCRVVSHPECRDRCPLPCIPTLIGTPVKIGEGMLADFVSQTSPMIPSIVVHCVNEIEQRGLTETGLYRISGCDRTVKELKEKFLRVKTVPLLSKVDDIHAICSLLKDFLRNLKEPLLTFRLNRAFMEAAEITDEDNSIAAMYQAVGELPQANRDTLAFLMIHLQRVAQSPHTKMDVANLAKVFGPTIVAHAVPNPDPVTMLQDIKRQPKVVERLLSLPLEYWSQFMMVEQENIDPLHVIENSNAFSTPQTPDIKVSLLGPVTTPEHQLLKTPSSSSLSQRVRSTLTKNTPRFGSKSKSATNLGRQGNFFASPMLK
# [9] = system: Streptococcus sp. 'group A'; assay: Streptococcus pyogenes SK(-)GAS viability under kanamycin – luminescence, BacTiterGlo, confirmation, counter-screen for streptokinase expression inhibitor project, dose response (AID 1900); type: functional, organism-based
# Streptococcus = assay: GAS UMAA2166 growth inhibition – luminescence, BacTiterGlo, counter-screen for streptokinase expression inhibitor project, dose response (AID 1915); type: functional, organism-based;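 further: potency for reduction of bacterial viability or growth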
# Melanocortin receptor 4 = Melanocortin receptor 4 (Homo sapiens, UniProt P32245); type: functional, cell-based;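 further: Cell-based assay with luminescence read-out, confirmatory dose-response testing for agonist activity of biased ligands at MC4R; human U2OS cells with tagged receptor and beta-arrestin; potency of agonists that increase receptor coupling to beta-arrestin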
# H9c2 = assay: cells; type: functional, cell-based; conditions: Rattus norvegicus, H9c2, Myocardium;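 further: confirmatory concentration-response retest of ultra-high-throughput screening hits for modulation of myocardial damage; cell death induced by hydrogen peroxide oxidative stress; compound pretreatment for 60 min then peroxide exposure for 2 h; potency is for protecting the cells against peroxide damage rather than for killing them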
# [10] = target: T4, Sentrin-specific protease 8 (Homo sapiens, UniProt Q96LD8); assay: inhibition of human SENP8 cleavage activity – biochemical, luminescence, SAR follow-up (AID 504501); type: functional
# T4 sequence (Q96LD8 whole entry): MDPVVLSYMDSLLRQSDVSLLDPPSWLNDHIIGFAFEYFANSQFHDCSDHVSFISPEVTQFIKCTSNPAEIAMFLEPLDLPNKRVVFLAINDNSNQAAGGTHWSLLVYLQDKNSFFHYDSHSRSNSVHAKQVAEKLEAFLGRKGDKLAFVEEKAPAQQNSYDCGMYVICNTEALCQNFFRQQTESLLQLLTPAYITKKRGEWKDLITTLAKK
# Caspase-3 = target: T5, Caspase-3 (Homo sapiens, UniProt P42574); assay: SAR Analysis of small molecule inhibitors of Sentrin-specific proteases (SENPs) using a Caspase-3 Selectivity assay. [Related pubchem assays (depositor defined):AID2540, AID2599, AID434973, AID489001]; type: functional
# T5 sequence (P42574 whole entry): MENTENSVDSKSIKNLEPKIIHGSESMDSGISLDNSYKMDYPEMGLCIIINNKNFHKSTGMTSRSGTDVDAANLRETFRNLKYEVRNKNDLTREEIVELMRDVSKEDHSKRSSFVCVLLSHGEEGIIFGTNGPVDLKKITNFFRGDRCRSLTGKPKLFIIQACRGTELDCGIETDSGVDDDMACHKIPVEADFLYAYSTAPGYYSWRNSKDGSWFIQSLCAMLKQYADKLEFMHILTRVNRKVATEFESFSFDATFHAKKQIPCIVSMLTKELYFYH
# [11] = target: T6, Sentrin-specific protease 6 (Homo sapiens, UniProt Q9GZR1); assay: SAR Analysis of small molecule inhibitors of Sentrin-specific protease 6 (SENP6) using a Luminescent assay. [Related pubchem assays (depositor defined):AID2582, AID2599]; type: functional
# T6 sequence (Q9GZR1 whole entry): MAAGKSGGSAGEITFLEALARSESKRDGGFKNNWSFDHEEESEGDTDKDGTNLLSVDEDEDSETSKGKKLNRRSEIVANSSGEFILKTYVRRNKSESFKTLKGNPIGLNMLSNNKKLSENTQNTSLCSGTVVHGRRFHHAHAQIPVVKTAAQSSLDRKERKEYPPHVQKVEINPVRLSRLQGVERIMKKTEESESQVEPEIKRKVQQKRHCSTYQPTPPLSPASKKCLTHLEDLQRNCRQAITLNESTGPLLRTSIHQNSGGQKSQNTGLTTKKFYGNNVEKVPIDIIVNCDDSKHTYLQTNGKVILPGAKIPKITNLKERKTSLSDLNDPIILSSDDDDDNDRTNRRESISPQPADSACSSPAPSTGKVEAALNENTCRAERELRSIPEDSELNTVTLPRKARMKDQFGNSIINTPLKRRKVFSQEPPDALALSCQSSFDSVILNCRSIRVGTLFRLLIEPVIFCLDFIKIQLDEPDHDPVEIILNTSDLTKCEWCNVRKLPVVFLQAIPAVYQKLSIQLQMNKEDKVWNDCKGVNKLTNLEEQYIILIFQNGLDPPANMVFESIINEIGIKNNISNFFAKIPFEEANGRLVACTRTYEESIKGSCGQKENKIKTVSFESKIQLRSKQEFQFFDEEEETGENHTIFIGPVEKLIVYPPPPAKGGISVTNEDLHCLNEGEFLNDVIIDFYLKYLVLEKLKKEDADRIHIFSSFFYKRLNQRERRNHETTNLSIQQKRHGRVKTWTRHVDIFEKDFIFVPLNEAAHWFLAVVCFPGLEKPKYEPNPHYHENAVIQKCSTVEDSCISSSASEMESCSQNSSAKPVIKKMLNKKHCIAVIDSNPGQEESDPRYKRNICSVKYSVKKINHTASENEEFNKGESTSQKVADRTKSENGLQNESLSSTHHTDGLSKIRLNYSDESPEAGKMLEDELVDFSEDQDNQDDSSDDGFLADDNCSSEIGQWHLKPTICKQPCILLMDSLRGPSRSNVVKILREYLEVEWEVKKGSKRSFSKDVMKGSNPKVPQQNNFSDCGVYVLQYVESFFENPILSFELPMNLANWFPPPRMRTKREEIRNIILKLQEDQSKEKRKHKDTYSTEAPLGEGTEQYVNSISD
# [12] = target: T7, Sentrin-specific protease 7 (Homo sapiens, UniProt Q9BQF6); assay: inhibition of human SENP7 cleavage activity – biochemical, luminescence, SAR follow-up (AID 504497); type: functional
# T7 sequence (Q9BQF6 whole entry): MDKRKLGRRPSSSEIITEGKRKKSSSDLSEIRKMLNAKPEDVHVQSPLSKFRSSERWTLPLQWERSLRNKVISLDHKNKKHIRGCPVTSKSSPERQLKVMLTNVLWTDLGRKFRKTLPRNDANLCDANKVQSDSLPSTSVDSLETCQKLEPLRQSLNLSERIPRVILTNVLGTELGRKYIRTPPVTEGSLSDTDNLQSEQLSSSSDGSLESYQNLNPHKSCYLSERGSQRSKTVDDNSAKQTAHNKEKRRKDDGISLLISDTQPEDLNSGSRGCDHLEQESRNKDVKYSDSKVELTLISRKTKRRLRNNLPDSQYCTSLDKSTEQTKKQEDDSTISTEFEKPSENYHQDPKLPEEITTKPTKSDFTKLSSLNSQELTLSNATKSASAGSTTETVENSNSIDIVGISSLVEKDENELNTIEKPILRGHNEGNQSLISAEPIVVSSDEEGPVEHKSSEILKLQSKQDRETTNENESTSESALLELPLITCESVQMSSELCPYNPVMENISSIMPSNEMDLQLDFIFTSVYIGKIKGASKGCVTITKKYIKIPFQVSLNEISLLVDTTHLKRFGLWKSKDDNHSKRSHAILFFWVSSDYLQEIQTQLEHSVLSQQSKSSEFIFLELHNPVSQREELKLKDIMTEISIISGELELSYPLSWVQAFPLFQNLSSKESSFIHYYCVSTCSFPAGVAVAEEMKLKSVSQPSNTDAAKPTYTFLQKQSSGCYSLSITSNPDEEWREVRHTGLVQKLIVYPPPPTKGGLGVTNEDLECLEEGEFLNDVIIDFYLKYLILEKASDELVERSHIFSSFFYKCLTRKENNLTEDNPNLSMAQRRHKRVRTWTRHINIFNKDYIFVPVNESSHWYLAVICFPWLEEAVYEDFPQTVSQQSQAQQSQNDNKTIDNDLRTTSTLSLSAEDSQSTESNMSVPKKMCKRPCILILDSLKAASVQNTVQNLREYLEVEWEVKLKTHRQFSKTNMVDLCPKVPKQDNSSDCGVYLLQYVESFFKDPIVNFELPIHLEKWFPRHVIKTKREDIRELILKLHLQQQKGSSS
# [13] = target: DNA dC->dU-editing enzyme APOBEC-3G (Homo sapiens, UniProt Q9HC16); assay: inhibition of APOBEC3G ssDNA deamination – biochemical, fluorescence, single-stranded DNA substrate, SAR follow-up (AID 602136); type: functional; conditions: read-out: IC50_Mean
# [14] = target: DNA dC->dU-editing enzyme APOBEC-3A (Homo sapiens, UniProt P31941); assay: SAR analysis of small molecule inhibitors of APOBEC3A DNA Deaminase via a fluorescence-based single-stranded DNA deaminase assay.; type: functional; conditions: read-out: IC50_Mean
# DNA dC->dU-editing enzyme APOBEC-3A, sequence (P31941 whole entry): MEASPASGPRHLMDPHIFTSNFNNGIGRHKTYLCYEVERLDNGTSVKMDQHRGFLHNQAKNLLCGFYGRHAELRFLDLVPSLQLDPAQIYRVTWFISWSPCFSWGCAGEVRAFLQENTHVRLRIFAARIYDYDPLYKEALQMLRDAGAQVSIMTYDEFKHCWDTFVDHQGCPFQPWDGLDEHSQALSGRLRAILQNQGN
# DNA dC->dU-editing enzyme APOBEC-3G, sequence (Q9HC16 whole entry): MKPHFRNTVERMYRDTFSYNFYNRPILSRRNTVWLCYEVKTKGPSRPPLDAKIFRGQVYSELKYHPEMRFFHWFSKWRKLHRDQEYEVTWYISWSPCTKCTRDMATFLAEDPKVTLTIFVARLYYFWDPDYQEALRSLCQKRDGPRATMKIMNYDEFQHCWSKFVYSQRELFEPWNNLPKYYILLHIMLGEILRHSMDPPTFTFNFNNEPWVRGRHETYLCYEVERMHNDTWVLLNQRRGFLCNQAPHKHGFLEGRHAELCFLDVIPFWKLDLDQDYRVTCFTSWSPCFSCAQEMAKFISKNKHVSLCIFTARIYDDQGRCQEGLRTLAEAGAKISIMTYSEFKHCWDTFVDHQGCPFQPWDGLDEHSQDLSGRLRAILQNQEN
# Melanocortin receptor 4, sequence (P32245 whole entry): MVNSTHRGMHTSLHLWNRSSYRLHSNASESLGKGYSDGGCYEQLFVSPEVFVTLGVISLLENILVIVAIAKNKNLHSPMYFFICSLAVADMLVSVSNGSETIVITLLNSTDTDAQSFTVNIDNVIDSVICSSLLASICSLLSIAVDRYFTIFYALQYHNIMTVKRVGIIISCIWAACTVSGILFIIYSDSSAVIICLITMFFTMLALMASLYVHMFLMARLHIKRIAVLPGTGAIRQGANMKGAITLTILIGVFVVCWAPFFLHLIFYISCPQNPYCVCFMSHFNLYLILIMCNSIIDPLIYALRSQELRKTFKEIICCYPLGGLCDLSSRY
# T2 sequence (P65502 whole entry): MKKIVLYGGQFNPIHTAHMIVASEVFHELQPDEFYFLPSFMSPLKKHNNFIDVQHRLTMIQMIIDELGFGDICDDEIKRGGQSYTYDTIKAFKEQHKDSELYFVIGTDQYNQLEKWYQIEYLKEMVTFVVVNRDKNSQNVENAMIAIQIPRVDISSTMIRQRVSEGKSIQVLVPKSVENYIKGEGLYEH
# Steroidogenic factor 1, sequence (Q13285 whole entry): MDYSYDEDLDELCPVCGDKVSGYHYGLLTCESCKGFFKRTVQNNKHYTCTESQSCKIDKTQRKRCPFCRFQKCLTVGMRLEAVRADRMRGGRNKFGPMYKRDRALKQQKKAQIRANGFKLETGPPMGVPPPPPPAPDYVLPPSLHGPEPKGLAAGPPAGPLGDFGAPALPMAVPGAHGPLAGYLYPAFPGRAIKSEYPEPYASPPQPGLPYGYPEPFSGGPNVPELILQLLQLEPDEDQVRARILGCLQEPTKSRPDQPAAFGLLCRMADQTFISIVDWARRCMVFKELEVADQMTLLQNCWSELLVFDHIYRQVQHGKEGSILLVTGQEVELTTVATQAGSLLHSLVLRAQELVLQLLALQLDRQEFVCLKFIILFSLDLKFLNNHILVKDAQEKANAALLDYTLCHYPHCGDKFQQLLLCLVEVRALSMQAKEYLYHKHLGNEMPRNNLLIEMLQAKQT
# Nuclear receptor subfamily 5 group A member 2, sequence (O00482 whole entry): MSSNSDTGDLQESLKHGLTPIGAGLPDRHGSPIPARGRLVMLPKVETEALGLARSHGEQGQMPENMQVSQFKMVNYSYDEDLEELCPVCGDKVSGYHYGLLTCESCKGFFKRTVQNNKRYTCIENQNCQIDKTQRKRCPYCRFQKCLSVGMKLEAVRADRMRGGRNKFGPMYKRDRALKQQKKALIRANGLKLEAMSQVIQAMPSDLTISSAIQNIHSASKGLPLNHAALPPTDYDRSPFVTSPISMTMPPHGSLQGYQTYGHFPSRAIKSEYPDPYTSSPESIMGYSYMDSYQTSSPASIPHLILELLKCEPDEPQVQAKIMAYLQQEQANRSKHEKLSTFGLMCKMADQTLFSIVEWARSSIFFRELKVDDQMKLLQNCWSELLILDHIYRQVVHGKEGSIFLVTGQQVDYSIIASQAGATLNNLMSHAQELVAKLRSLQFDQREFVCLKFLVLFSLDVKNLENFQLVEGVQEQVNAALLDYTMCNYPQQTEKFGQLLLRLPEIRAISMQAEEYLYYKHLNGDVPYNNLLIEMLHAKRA
smiles,measurement,setting,value
CCOC(=O)c1cc2sccc2n1CC(=O)Nc1ccc2c(c1)OCCO2,IC50,[1],35.9 µM (inactive)
same,IC50,Steroidogenic factor 1,15.7 µM (inactive)
same,IC50,[2],35.9 µM (inactive)
COc1ccc(CSc2nc3nc(C)cc(C)n3n2)cc1F,IC50,[3],2.4 µM (active)
same,IC50,[4],11.2 µM (active)
NC(=O)[C@H]1CC2(CC(c3cccc(NC(=O)COc4ccc(Cl)cc4)c3)=NO2)CN1C(=O)CC(c1ccccc1)c1ccccc1 (some centres not stated),IC50,[5],12.7 µM (active)
same,IC50,[6],37.7 µM (active)
COc1ccccc1NS(=O)(=O)c1ccc(C)c(C(=O)NCC(c2ccco2)N2CCCCC2)c1 (configuration not stated),IC50,[3],0.778 µM (active)
same,IC50,[4],0.409 µM (active)
COc1cc(/C=C2\SC(Nc3ccccc3OC)=NC2=O)ccc1O,CC50,[7],100 µM (active)
same,IC50,[8],22.2 µM (active)
Cc1ccc(NC(=S)NC(=O)c2ccc(-c3ccc(Cl)cc3)o2)c(O)c1,EC50,[9],7.63 µM (active)
same,EC50,Streptococcus,9.04 µM (active)
same,EC50,Melanocortin receptor 4,> 89.2 µM (inactive)
CCc1cc(O)nc(SCC(=O)Nc2ccc3c(c2)OCCO3)n1,IC50,[1],35.9 µM (inactive)
same,IC50,Steroidogenic factor 1,12 µM (inactive)
same,IC50,[2],35.9 µM (inactive)
COc1cc(-c2cc(NC=O)c3ncc(-c4cccc(C(F)(F)F)c4)n3c2)cc(OC)c1OC,IC50,H9c2,51.3 µM (inactive)
same,EC50,Melanocortin receptor 4,> 89.2 µM (inactive)
Ic1ccccc1-c1nc(/C=C/c2ccccc2)no1,IC50,[10],15 µM (active)
same,IC50,Caspase-3,18 µM (active)
same,IC50,[11],13 µM (active)
same,IC50,[12],5 µM (active)
O=C(O)c1ccc(Cl)c2c1C1C=CCC1C(c1ccccc1F)N2 (configuration not stated),IC50,[13],> 99 µM (inactive)
same,IC50,[14],27.4 µM (inactive)
CCOc1ccccc1N1C(=O)C(=O)N(CC(=O)c2ccc[nH]2)C1=O,IC50,[13],> 99 µM (inactive)
same,IC50,[14],> 99 µM (inactive)

# Source: ChEMBL document CHEMBL1201862, “PubChem BioAssay data set” (2004)
